# Experimental data as given in patent US6153434A, “Methods for the intracellular delivery of substances” (University of Florida, priority 1999, dated 2000).
# Read-outs that look alike come from different tables or passages of the source.
# Legend:
# plasmid DNA = assay: Dissociation of DNA from DNA/liposome complexes by glutathione, agarose gel electrophoresis; type: physicochemical
# Protocol: Dissociation of DNA from DNA/liposome complexes by glutathione: One μg of plasmid DNA was dissolved in 10 (L of phosphate-buffer saline (PBS). Cationic liposomes […] or CHSTAEA/DOPE were added to pDNA solution at the increasing weight ratios of 2/1, respectively. All calculations of the weight of liposomes in this paper were based on the weight of cationic lipids only. After the complexes were incubated for 30 minutes at room temperature, 10 (L of 20 mM of glutathione in PBS (pH=7.3) was added to the mixture to reach a final concentration of glutathione of 10 mM. The mixtures were incubated at 37° C. for 20 hours. Released DNA was visualized by 1% agarose gel electrophoresis.
# DNA was complexed with a disulfide cationic liposome CHDTAEA/DOPE or its non-disulfide cationic liposome analog CHSTAEA/DOPE at the cationic lipid to DNA ratio of 2/1. […] In the presence of 10 mM of glutathione, >50% of DNA was released from complexes after the incubation. […] The complexes with the ratios of cationic liposome/DNA from 3/1 to 5/1 were also tested in the release assay with similar same results.
# CHO cells [1] = assay: Transfection of pGL3-luciferase plasmid; type: cell-based, Chinese hamster
# Protocol: (§1) FIGS. 5A and 5B show a comparison of the transfection of pGL3-luciferase plasmid by CHDTAEA/DOPE, CHSTAEA/DOPE, and DC-Chol in CHO and SKnSH cells. A fixed dose 2 μg/well of pGL3 DNA was mixed with increasing weight ratios of cationic liposomes (calculation based on cationic lipid) and used for transfection. FIG. 5A: Transfection in CHO cells, FIG. 5B: Transfection in SKnSH cells. .diamond-solid.CHDTAEA/DOPE, .box-solid.CHSTAEA/DOPE; .tangle-solidup.DC-Chol/DOPE. Data is shown as mean (S. D. (n=3).
# (§2) Cell culture and gene transfection using CHDTAEA and CHSTAEA: Chinese hamster ovary (CHO) and SKnSH cells were obtained from American Tissue Type Collection (Rockville, Md.). […] DNA/liposome complexes in 100 (L of serum free media were added to each well and incubated for 4.5 hours. After the 4.5-hour transfection time, the transfection media were changed to growth media and cells were incubated for another 24 hours. Luciferase activity was measured using a standard luciferase assay (Thierry, A. R., P. Rabinovich, B. Peng, L. C. Mahan, J. L. Bryant, R. C. Gallo (1997) Gene Ther 4:226-237). Luciferase activity in transfected cells was expressed as RLU per well. All conditions for transfection were strictly kept the same for each different kind of liposomes. Experiments were repeated at least twice, and experiments were done in triplicate within a given series.
# SKnSH cells [2] = assay: Transfection of pGL3-luciferase plasmid; type: cell-based
# Protocol: as §1, §2
# CHO and SKnSH cells = assay: Cytotoxicity of liposome/DNA complexes, both cell lines (FIG. 6); type: cell-based
# Protocol: FIGS. 6A and 6B show the toxicity assays of cytotoxicity of the liposome/DNA complexes was studied in CHO and SKnSH cells. A fixed dose of 1 μg/well of pDNA was mixed with increasing amount of cationic liposomes and used in the toxicity assay. Cell viability was calculated as percentage of survival cells as stated in the Methods section. FIG. 6A: Toxicity in CHO cells. FIG. 6B: Toxicity in SKnSH cells. .diamond-solid.CHDTAEA/DOPE, .box-solid.CHSTAEA/DOPE; .tangle-solidup.DC-Chol/DOPE. Data is shown as mean (S. D. (n=3).
# Toxicity Assay of CHDTAEA, CHSTAEA and DC-Chol: The toxicity of CHDTAEA/DOPE, CHSTAEA/DOPE and DC-Chol/DOPE in the CHO and SKnSH cell line was determined using a CARE-LASS (a calcein release assay). Before the assay, cells were plated in a 96 well plate (1(10^5 cells/well) and grown to 60-80% confluence overnight. To test the toxicity of the DNA/liposome complexes, a fixed amount of DNA (1 μg/well) was used to complex with increasing amount of liposomes. The ratios of DNA to liposome of different treatments were the same as the ratios used in transfection studies. The cytotoxicity of three liposomes were measured and expressed according to our previous procedure (Tang, F., J. A. Hughes (1998) Biochem Biophys Res Commun 242:141-145). Each experiment was performed in triplicate and repeated at least twice.
# COS 1 cells = assay: Luciferase gene transfection (second set of experiments)
# Protocol: (§4) In another set of experiments COS 1 and Chinese hamster ovary (CHO) cells were maintained in DMEM (high glucose) and (-MEM) respectively, and supplemented with 10% fetal bovine serum (FBS) and antibiotics (penicillin 100 g/ml and streptomycin 100 μg/ml). All cells were kept in 5% CO2 and at 37° C. in humidified air. Cell lines were cultured and seeded in 24 well plates (2×10^5), and grown to 60-80% confluence in 1 ml of media with serum. DNA/lipid complexes were made and incubated at room temperature in serum free media for 5-10 minutes and used for transfection. Before transfection, growth media containing serum was changed to serum free media and for the experiment to test serum sensitivity, growth media were changed to fresh growth media and the transfection mixtures were added to the cells. After a certain period of time for the specific experiments, the media was changed to growth media containing serum, and the cells were grown for another 48 hours. Following transfection and incubation, cells were rinsed twice with phosphate buffer saline. 100 μL of luciferase lysis buffer (0.1 M potassium phosphate buffer pH 7.8, 2 mM EDTA, 1% Triton X-100, 1 mM DTT) was added to the cells. The cells were lysed with shaking at room temperature for 15 minutes. Luciferase activity was quantified by using a Monolight 2010 Luminometer. 100 µl of luciferase assay buffer (30 mM tricine, 3 mM ATP, 15 mM MgSO4, 10 mM DDT, pH=7.8) and 2 μL of cell lysate were added to a 100 l injection of 1 mM D-luciferin, pH=6.3 (Molecular Probes). The light emission over a 10 second reaction period was integrated. […] 2 l of cells lysate was used for luciferase assay. The total protein concentration in the supernatant was measured by the BCA protein assay reagent (Pierce, Rockford, Ill.). Luciferase activity in cultured cells was expressed as RLU per mg of protein. Each experiment was repeated at least twice, and within in a series, experiments were done in triplicate.
# (§5) Comparison experiments were done by using a fixed amount of DNA (3 g/well). Transfection activity of six ratios of cationic lipid to DNA: 1/1, 2/1, 3/1, 4/1, 8/1, and 10/1 (w/w) were tested in COS 1 cells and CHO cells. […] Since serum was reported to decrease the transfection activity of some cationic liposomes, transfection was studied both in serum free media and growth media containing 10% of FBS.
# CHO cells [3] = assay: Transfection efficiency assay (green fluorescence protein, pUF2 DNA); type: cell-based, Chinese hamster; details: optimal transfection ratio
# Protocol: Transfection efficiency assay: The optimal weight ratio for transfection of each liposome was used. […] Complexes were incubated with CHO cells in serum free media for 4.5 hour then the media was changed to growth media and further incubated for 20 hours. Transfection efficiency was determined by counting the number of green fluorescence cells compared with all cells in the field of vision under (20 magnification using a Nikon Diaphot inverted microscope). Each transfection was done in triplicate and three separate counts were made for each well.
# [4] = Aggregation of transfection complexes during transfection; type: physicochemical
# Protocol: The lack of physical stability of liposome/DNA complexes affects the gene transfection activity (Caplen, N. J., E. Kinrade, F. Sorgi, X Gao, D. Gruenert, C. Couttelle, L. Huang, E. W . F. W. Alton, R. Williamson (1995) Gene Ther. 2:603). […] The interaction force between primary amino groups and DNA is not as strong as the interaction force of a quaternary amino group with DNA and is dependent on the local environment.
# (§3) When DNA transfection was carried out in serum free media, the DNA/liposome complexes usually incubated with cells for about 4-5 hours. […] Biophys. Acta 1111, 239-246). For gene transfection in growth media containing 10% FBS, the toxicity of complexes may be alleviated, and also the transfection may be inhibited by enzymes or slowed down by negatively charged macromolecules.
# CHO cells [5] = assay: Luciferase gene transfection (second set of experiments); type: cell-based, Chinese hamster
# Protocol: as §3
# Biophys. Acta 1111, 239-246).
# COS-1 cells = assay: Luciferase gene transfection; type: cell-based
# SKnSH cells [6] = assay: Luciferase gene transfection; type: cell-based
# [7] = tested on: COS 1 cells and CHO cells; assay: Luciferase gene transfection (second set of experiments), COS 1 and CHO; type: cell-based; details: serum free media
# Protocol: as §4, §5
# 293 cells = assay: Luciferase gene transfection; type: cell-based
# [8] = weight ratio 10/1 (charge ratio 6/1(+/-))
# [9] = CHO cells, growth media containing 10% FBS
# [10] = CHO, serum free, optimal ratio of each liposome
smiles,measurement,setting,value
"CC(C)CCC[C@@H](C)[C@H]1CC[C@H]2[C@@H]3CC=C4C[C@@H](OC(=O)CSSCC(=O)NCCN(CCN)CCN)CC[C@]4(C)[C@H]3CC[C@]12C [CHDTAEA, Cholesteryl hemidithiodiglycolyl tris(aminoethyl)amine]",release of complexed DNA,plasmid DNA; presence of glutathione,released more than half of complexed DNA
same,transfection activity vs non-disulfide analog CHSTAEA,CHO cells [1],greater transfection activity than its non-disulfide analog CHSTAEA
same,transfection activity vs non-disulfide analog CHSTAEA,SKnSH cells [2],greater transfection activity than its non-disulfide analog CHSTAEA
"CC(C)CCC[C@@H](C)[C@H]1CC[C@H]2[C@@H]3CC=C4C[C@@H](OC(=O)CCC(=O)NCCN(CCN)CCN)CC[C@]4(C)[C@H]3CC[C@]12C [CHSTAEA, Cholesteryl hemisuccinyl tris(aminoethyl)amine]",cytotoxicity vs CHDTAEA,CHO and SKnSH cells,much greater cytotoxicity
same,release of DNA from complexes,"plasmid DNA; in both reductive and non-reductive environments, 20 hours",did not release DNA at any conditions after incubation for 20 hours
"CC(C)CCC[C@@H](C)[C@H]1CC[C@H]2[C@@H]3CC=C4C[C@@H](OC(=O)NCCN(C)C)CC[C@]4(C)[C@H]3CC[C@]12C [DC-Chol, Cholesteryl N-(dimethylaminoethyl)carbamate, reference compound]",cytotoxicity vs CHDTAEA,CHO and SKnSH cells; FIG. 6,much greater cytotoxicity
"CCCCCCCC/C=C\CCCCCCCC(=O)OC[C@H](COC(=O)CCC(=O)OCCSSCCOC(=O)C(N)CCCN)OC(=O)CCCCCCC/C=C\CCCCCCCC (some centres unmarked) [DOGSDSO, 1',2'-dioleoyl-sn-glycero-3'-succinyl-2-hydroxyethyl disulfide ornithine conjugate]",transfection activity in the presence of serum,"COS 1 cells; 10% FBS, COS-1 cells",equally active in the presence of 10% FBS
same,"luciferase gene expression, 2 g of pDNA, vs 7 g of pDNA with DOGSHDO",COS 1 cells; COS 1,3 time higher
same,luciferase gene expression,"COS 1 cells; COS 1, 2 g of pDNA",1.18E+09
same,transfection activity in growth media vs serum free media,"COS 1 cells; COS 1, 12 hours",comparable to transfection activity in serum free media
same,transfection activity (luciferase),"COS 1 cells; COS 1, growth media (10% FBS), 12 hours",5.9×10^8 RLU/mg protein
same,"highest transfection activity, times higher than DOGSHDO","COS 1 cells; COS 1, growth media with serum",3 times
same,"highest transfection activity, times higher than DOTAP","COS 1 cells; COS 1, growth media with serum",2 times
same,amount of DNA at saturation of system,"COS 1 cells; COS 1, lipid/DNA 10/1",2 g
same,transgene expression on increase of DNA from 2 g to 7 g,"COS 1 cells; COS 1, lipid/DNA 10/1",no significant increase of transgene expression (p>0.2319)
same,"transfection activity, times higher than DOGSHDO","COS 1 cells; COS 1, serum free, optimal ratio of each liposome",11 times
same,"transfection activity, times higher than DOTAP","COS 1 cells; COS 1, serum free, optimal ratio, DOTAP at 1:1",6 times
same,amount of DNA at saturation of system,"COS 1 cells; COS-1 cells, optimal DNA/liposome ratio",2e-06 g
same,"expression of luciferase at lipid/DNA ratios 1/1, 2/1, 3/1, 4/1 (w/w)",COS 1 cells; growth media with serum,not statistically different (p>0.2782)
same,transgene expression efficiency (green fluorescence protein),CHO cells [3],20-25%
same,aggregation of transfection complexes,[4]; [8],did not aggregate during transfection
same,gene expression on further increase of DNA to 7 μg,CHO cells [5]; CHO,decrease of gene expression (p<0.0232)
same,"gene expression, 5 μg vs 6 μg of DNA",CHO cells [5]; CHO,no significant difference of gene expression between the treatments of 5 μg of DNA and 6 μg of DNA (p>0.6528)
same,"luciferase gene expression, 5 μg of DNA, vs 7 μg of DNA by DOGSHDO",CHO cells [5]; CHO,14 times higher
same,transfection time of highest transfection activity,CHO cells [5]; [9],12 h
same,luciferase gene expression,"CHO cells [5]; CHO, 5 μg of DNA",9.03E+08
same,"optimal transfection activity, times higher than DOTAP or DOGSHDO","CHO cells [5]; CHO, growth media with serum",3 times
same,transfection efficiency vs DOGSHDO,"CHO cells [5]; CHO, lipid/DNA 10/1",higher transfection efficiency
same,"transfection activity, times higher than DOGSHDO",CHO cells [5]; [10],3 times
same,"transfection activity, times higher than DOTAP",CHO cells [5]; [10],2 times
same,amount of DNA at saturation of system,"CHO cells [5]; CHO, transferred by 50 μg of DOGSDSO",5 µg
same,effect on transfection activity compared to DOGSHDO,COS-1 cells,greater than 50 fold
same,increase in transfection activity compared to DOGSHDO,SKnSH cells [6],4 fold
same,effect of further increase of liposome amount above 10/1,[7],caused cytotoxicity and decreased the transfection activity
same,optimal weight ratio of cationic lipid to DNA in transfection,[7],10/1
same,effect on transfection activity compared to DOGSHDO,293 cells,greater than 50 fold
"CCCCCCCC/C=C\CCCCCCCC(=O)OCC(COC(=O)CCC(=O)OCCCCCCOC(=O)[C@@H](N)CCCN)OC(=O)CCCCCCC/C=C\CCCCCCCC (some centres unmarked) [DOGSHDO, 1',2'-dioleyl-sn-glycero-3'-succinyl-1,6-hexanediol ornithine conjugate]",saturation of system,"COS 1 cells; 7 μg of DNA, COS-1 cells",did not reach the saturation
same,luciferase gene expression,"COS 1 cells; COS 1, 7 g of pDNA",3.84E+08
same,transgene expression with increasing complexes,"COS 1 cells; COS 1, lipid/DNA 10/1",increased with the increase of DNA/DOGSHDO complexes (p<0.0071) for the system did not reach saturation
same,"luciferase expression, 7 μg of DNA, vs 2 μg of DNA by DOGSDSO",COS 1 cells; COS-1 cells,only one third of that of 2 μg of DNA transferred by DOGSDSO liposome
same,transgene expression efficiency (green fluorescence protein),CHO cells [3],6-7%
same,aggregation of transfection complexes,[4]; [8],did not aggregate during transfection
same,gene expression with increasing amount of DNA/liposome,CHO cells [5]; CHO,gene expression kept increasing
same,transfection time of highest transfection activity,CHO cells [5]; [9],12 h
same,luciferase gene expression,"CHO cells [5]; CHO, 7 μg of DNA",6.5E+07
same,effect of further increase of liposome amount above 10/1,[7],caused cytotoxicity and decreased the transfection activity
same,optimal weight ratio of cationic lipid to DNA in transfection,[7],10/1
"CCCCCCCC/C=C\CCCCCCCC(=O)OCC(C[N+](C)(C)C)OC(=O)CCCCCCC/C=C\CCCCCCCC (centres unmarked) [DOTAP, 1,2-dioleoyl-3-trimethylammonium-propane, reference compound]",transgene expression efficiency (green fluorescence protein),CHO cells [3],5-6%
same,aggregation of transfection complexes,[4]; weight ratios of DOTAP to DNA bigger than 2:1,form large aggregates
same,transfection activity from 2 hours to 48 hours transfection time,CHO cells [5]; [9],not statistically different from 2 hours to 48 hours transfection time (p>0.1220)
